Test results as given in publication PMC12775434, “Ultra-large virtual screening unveils potent agonists of the neuromodulatory orphan receptor GPR139” (Nature Communications, 2025).
Several values for one entry are separate records, joined by “and”; a condition that tells them apart may be missing. Equal values may be shown once.

Legend:
[1] = biological target: T1, GPR139 (Gi2 activation) (Homo sapiens, UniProt Q6DWJ6); assay: BRET G protein activation (dissociation) assay, Gi2, HEK293A; type: cell-based; details: for Emax: HEK293-A, normalized to JNJ-63533054 (JNJ(S)); for EC50: Supplementary Table 6, read-out: pEC50 Gi2 (converted); for G protein activation, Gi2: individual replicates
T1 construct: expressed in transfected cells; host or cells: HEK293A (transient, Lipofectamine 2000)
T1 sequence (Q6DWJ6 1-353): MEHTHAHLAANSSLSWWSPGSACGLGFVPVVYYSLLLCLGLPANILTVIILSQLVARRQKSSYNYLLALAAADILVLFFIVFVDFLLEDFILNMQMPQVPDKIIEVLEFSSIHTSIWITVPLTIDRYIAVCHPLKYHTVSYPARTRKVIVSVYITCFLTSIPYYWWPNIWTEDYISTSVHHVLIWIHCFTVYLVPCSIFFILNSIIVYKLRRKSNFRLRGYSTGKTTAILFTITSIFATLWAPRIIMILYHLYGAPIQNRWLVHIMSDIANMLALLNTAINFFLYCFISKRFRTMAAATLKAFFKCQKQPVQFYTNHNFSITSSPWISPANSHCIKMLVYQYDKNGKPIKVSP
Procedure: (§1) Primary screening and pharmacological characterization of compounds were performed using a CHO-K1 cell line that stably expresses human GPR139 (GPR139-CHOk1). The GPR139-CHOk1 cell line was kindly provided by H. Lundbeck A/S, Denmark[24]. GPR139-CHOk1 cells were grown in Ham’s F-12 Kaighn’s Modification Medium (ThermoFisher #21127030) supplemented with 10% dialyzed fetal bovine serum (US origin, ThermoFisher #26400044), 100 units/mL Penicillin-Streptomycin (ThermoFisher #15140122), and 1 mg/mL Geneticin (ThermoFisher #11811031). […] M1R-CHOk1 cells were purchased from The Missouri S&T cDNA Resource Center (#CEM100TN00). M1R-CHOk1 cells were grown in Ham’s F12 Medium (ThermoFisher #21765029) supplemented with 10% fetal bovine serum (Brazilian origin, ThermoFisher #10270106), 100 units/mL Penicillin-Streptomycin, and 0.25 mg/mL Geneticin. HEK293A cells transiently transfected with GPR139 were used for additional pharmacological assessment of signaling pathways activated by GPR139. HEK239A cells were generously provided by Dr. Asuka Inoue, Tohoku University, Japan. HEK293A cells were grown in Dulbecco’s Modified Eagle Medium (ThermoFisher #31966047) supplemented with 10% dialyzed fetal bovine serum and 100 units/mL Penicillin-Streptomycin. Cell lines were maintained at 37 °C in humidified incubator equilibrated with 5% CO2.
(§2) The G protein dissociation assay developed by the lab of Kirill A. Martemyanov was used to measure the coupling of multiple G proteins by GPR139[57]. The assay was performed as described previously with minor modifications. HEK293A cells were reverse transfected 20–24 h prior to assay. 50,000 cells were plated in each well of white opaque tissue culture treated 96-well plates (PerkinElmer #6005680) previously coated with poly-D-lysine. Transfection solutions were prepared as described, and 10 µL transfection solution was mixed with 100 µL cells in each well. The cells in each well were transfected with 18.9 ng GPR139, 6.3 ng Venus 1-155 Gγ2, 6.3 ng Venus 159-239 Gβ1, 6.3 ng masGRK3ct-NanoLuc and 12.6 ng Gαi2, 12.6 ng Gαi3, 12.6 ng GαoA, 12.6 ng Gαq or 25.2 ng Gα12 using 375 nL Lipofectamine 2000 Transfection Reagent. Transfections with Gαq and Gα12 contained 6.3 ng DNA of the active subunit S1 of pertussis toxin (PTX-S1). Each transfection was normalized to 150 ng total DNA with pcDNA3.1. The BRET biosensors were a kind gift from the Martemyanov lab. On the day of the experiment the cells were washed with HEPES buffer. Test compounds were diluted in HEPES buffer from DMSO stocks (final DMSO concentration of maximally 0.3%). NanoLuc Luciferase substrate NanoGlo—furimazine (Promega #N1120) was diluted 1000-fold (final) in HEPES buffer. NanoGlo and test compounds were added, and measurements were performed after 10 s for Gi3, 15 s for Gi2 and GoA, 20 s for Gq, and 90 s for G12—the timepoint where maximal signal occurred with each G protein, ensuring proper determination of the potency for the G protein coupling. Simultaneous dual emission was measured at 535 nm and 475 nm on LUMIstar Omega Microplate Reader (BMG Labtech) at room temperature. The BRET ratio of 535 nm/475 nm (Venus/NanoLuc), reflecting the dissociation of the G protein heterotrimer, was used to determine the G protein activation. The basal BRET ratio obtained with buffer condition was subtracted from the absolute BRET ratio at a given test compound concentration, and the responses were normalized to the one obtained with 10 µM JNJ-63533054 for the activation of Gi2.
(§3) Pharmacological data and statistical analyses were performed in GraphPad Prism v9–10 (Graphpad Software Inc., San Diego, CA), which are also specifically described in the figure and table legends. […]

[2] = biological target: T2, GPR139 (GoA activation) (Homo sapiens, UniProt Q6DWJ6); assay: BRET G protein activation (dissociation) assay, GoA, HEK293A; type: cell-based; details: for Emax: HEK293-A, normalized to JNJ-63533054 (JNJ(S)); for EC50: Supplementary Table 6; for G protein activation, GoA: individual replicates
T2 construct: expressed in transfected cells; host or cells: HEK293A (transient, Lipofectamine 2000)
T2 sequence (Q6DWJ6 1-353): T1 sequence (Q6DWJ6 1-353)
Procedure: as §1, §2, §3

[3] = log [compound] M -4.5, listed as JNJ (S)
[4] = log [compound] M -5.0, listed as JNJ (S)
[5] = log [compound] M -5.5, listed as JNJ (S)
[6] = log [compound] M -6.0, listed as JNJ (S)
[7] = log [compound] M -6.5, listed as JNJ (S)
[8] = log [compound] M -7.0, listed as JNJ (S)
[9] = log [compound] M -7.5, listed as JNJ (S)
[10] = log [compound] M -8.0, listed as JNJ (S)

C[C@@H](NC(=O)CNC(=O)c1cccc(Cl)c1)c1ccccc1 [JNJ(R), reference compound]
Emax [1]: 86 ± 4% | EC50 [1]: 3980 nM | G protein activation, Gi2 ([1]; log [compound] M -4.5): 73 % of JNJ-63533054 at Gi2 and 81 % of JNJ-63533054 at Gi2 and 77 % of JNJ-63533054 at Gi2 | G protein activation, Gi2 ([1]; log [compound] M -5.0): 61 % of JNJ-63533054 at Gi2 and 62 % of JNJ-63533054 at Gi2 and 65 % of JNJ-63533054 at Gi2 | G protein activation, Gi2 ([1]; log [compound] M -5.5): 41 % of JNJ-63533054 at Gi2 and 43 % of JNJ-63533054 at Gi2 and 42 % of JNJ-63533054 at Gi2 | G protein activation, Gi2 ([1]; log [compound] M -6.0): 16 % of JNJ-63533054 at Gi2 and 23 % of JNJ-63533054 at Gi2 and 21 % of JNJ-63533054 at Gi2 | G protein activation, Gi2 ([1]; log [compound] M -6.5): 6 % of JNJ-63533054 at Gi2 and 7 % of JNJ-63533054 at Gi2 and 10 % of JNJ-63533054 at Gi2 | G protein activation, Gi2 ([1]; log [compound] M -7.0): -0.885 % of JNJ-63533054 at Gi2 and 0.48 % of JNJ-63533054 at Gi2 and 10 % of JNJ-63533054 at Gi2 | G protein activation, Gi2 ([1]; log [compound] M -7.5): 0.698 % of JNJ-63533054 at Gi2 and -1 % of JNJ-63533054 at Gi2 and 11 % of JNJ-63533054 at Gi2 | G protein activation, Gi2 ([1]; log [compound] M -8.0): -0.866 % of JNJ-63533054 at Gi2 and -1.55 % of JNJ-63533054 at Gi2 and 11 % of JNJ-63533054 at Gi2 | Emax [2]: 79 ± 1% | EC50 [2]: 5010 nM | G protein activation, GoA ([2]; log [compound] M -4.5): 73 % of JNJ-63533054 at Gi2 and 70 % of JNJ-63533054 at Gi2 and 62 % of JNJ-63533054 at Gi2 | G protein activation, GoA ([2]; log [compound] M -5.0): 58 % of JNJ-63533054 at Gi2 and 53 % of JNJ-63533054 at Gi2 and 47 % of JNJ-63533054 at Gi2 | G protein activation, GoA ([2]; log [compound] M -5.5): 37 % of JNJ-63533054 at Gi2 and 33 % of JNJ-63533054 at Gi2 and 28 % of JNJ-63533054 at Gi2 | G protein activation, GoA ([2]; log [compound] M -6.0): 16 % of JNJ-63533054 at Gi2 and 13 % of JNJ-63533054 at Gi2 and 14 % of JNJ-63533054 at Gi2 | G protein activation, GoA ([2]; log [compound] M -6.5): 5.7 % of JNJ-63533054 at Gi2 and 1.59 % of JNJ-63533054 at Gi2 and 5.63 % of JNJ-63533054 at Gi2 | G protein activation, GoA ([2]; log [compound] M -7.0): -0.263 % of JNJ-63533054 at Gi2 and -1.74 % of JNJ-63533054 at Gi2 and 2.49 % of JNJ-63533054 at Gi2 | G protein activation, GoA ([2]; log [compound] M -7.5): -1.44 % of JNJ-63533054 at Gi2 and 0.514 % of JNJ-63533054 at Gi2 and 0.72 % of JNJ-63533054 at Gi2 | G protein activation, GoA ([2]; log [compound] M -8.0): -1.46 % of JNJ-63533054 at Gi2 and -2.26 % of JNJ-63533054 at Gi2 and 3.8 % of JNJ-63533054 at Gi2

CC(NC(=O)CNC(=O)c1cccc(Cl)c1)c1ccccc1 (stereo not shown) [JNJ-63533054, reference compound]
Emax [1]: 109 ± 1% | EC50 [1]: 50.1 nM | G protein activation, Gi2 [1, 3]: 109 % of JNJ-63533054 at Gi2 and 111 % of JNJ-63533054 at Gi2 and 108 % of JNJ-63533054 at Gi2 | G protein activation, Gi2 [1, 4]: 106 % of JNJ-63533054 at Gi2 and 107 % of JNJ-63533054 at Gi2 and 108 % of JNJ-63533054 at Gi2 | G protein activation, Gi2 [1, 5]: 107 % of JNJ-63533054 at Gi2 and 103 % of JNJ-63533054 at Gi2 and 104 % of JNJ-63533054 at Gi2 | G protein activation, Gi2 [1, 6]: 102 % of JNJ-63533054 at Gi2 and 99 % of JNJ-63533054 at Gi2 and 98 % of JNJ-63533054 at Gi2 | G protein activation, Gi2 [1, 7]: 92 % of JNJ-63533054 at Gi2 and 85 % of JNJ-63533054 at Gi2 (2×) | G protein activation, Gi2 [1, 8]: 75 % of JNJ-63533054 at Gi2 and 67 % of JNJ-63533054 at Gi2 and 70 % of JNJ-63533054 at Gi2 | G protein activation, Gi2 [1, 9]: 49 % of JNJ-63533054 at Gi2 and 44 % of JNJ-63533054 at Gi2 (2×) | G protein activation, Gi2 [1, 10]: 21 % of JNJ-63533054 at Gi2 (2×) and 20 % of JNJ-63533054 at Gi2 | Emax [2]: 114 ± 2% | EC50 [2]: 79.4 nM | G protein activation, GoA [2, 3]: 119 % of JNJ-63533054 at Gi2 (2×) and 112 % of JNJ-63533054 at Gi2 | G protein activation, GoA [2, 4]: 117 % of JNJ-63533054 at Gi2 (2×) and 106 % of JNJ-63533054 at Gi2 | G protein activation, GoA [2, 5]: 113 % of JNJ-63533054 at Gi2 and 106 % of JNJ-63533054 at Gi2 (2×) | G protein activation, GoA [2, 6]: 108 % of JNJ-63533054 at Gi2 and 94 % of JNJ-63533054 at Gi2 and 102 % of JNJ-63533054 at Gi2 | G protein activation, GoA [2, 7]: 97 % of JNJ-63533054 at Gi2 and 82 % of JNJ-63533054 at Gi2 and 91 % of JNJ-63533054 at Gi2 | G protein activation, GoA [2, 8]: 74 % of JNJ-63533054 at Gi2 and 64 % of JNJ-63533054 at Gi2 and 65 % of JNJ-63533054 at Gi2 | G protein activation, GoA [2, 9]: 43 % of JNJ-63533054 at Gi2 and 34 % of JNJ-63533054 at Gi2 and 33 % of JNJ-63533054 at Gi2 | G protein activation, GoA [2, 10]: 17 % of JNJ-63533054 at Gi2 and 12 % of JNJ-63533054 at Gi2 and 13 % of JNJ-63533054 at Gi2
